Data from patent US20230078764A1 (Yumanity Therapeutics, Inc., priority 2019, published 2023).

How the values were obtained:
human SCD5 = human SCD5 (Homo sapiens, UniProt Q86SK9); assay: Growth inhibition of yeast strain expressing human SCD5 as sole desaturase (OLE1 deleted), OD600 readout; assay type: cell-based
human SCD1 = human SCD1 (Homo sapiens, UniProt O00767); assay: Growth inhibition of yeast strain expressing human SCD1 as sole desaturase (OLE1 deleted), OD600 readout; assay type: cell-based
Sequence of human SCD1 (O00767 whole entry, looked up): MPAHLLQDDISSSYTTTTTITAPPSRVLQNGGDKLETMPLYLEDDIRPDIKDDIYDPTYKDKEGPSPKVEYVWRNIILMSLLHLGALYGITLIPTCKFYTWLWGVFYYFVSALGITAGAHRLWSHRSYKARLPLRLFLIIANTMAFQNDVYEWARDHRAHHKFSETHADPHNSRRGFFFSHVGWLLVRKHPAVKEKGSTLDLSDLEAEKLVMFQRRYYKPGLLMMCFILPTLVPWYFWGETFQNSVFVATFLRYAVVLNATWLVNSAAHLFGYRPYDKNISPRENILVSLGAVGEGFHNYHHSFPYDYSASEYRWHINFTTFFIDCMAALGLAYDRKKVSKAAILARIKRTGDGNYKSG

Sequence of human SCD5 (Q86SK9 whole entry, looked up): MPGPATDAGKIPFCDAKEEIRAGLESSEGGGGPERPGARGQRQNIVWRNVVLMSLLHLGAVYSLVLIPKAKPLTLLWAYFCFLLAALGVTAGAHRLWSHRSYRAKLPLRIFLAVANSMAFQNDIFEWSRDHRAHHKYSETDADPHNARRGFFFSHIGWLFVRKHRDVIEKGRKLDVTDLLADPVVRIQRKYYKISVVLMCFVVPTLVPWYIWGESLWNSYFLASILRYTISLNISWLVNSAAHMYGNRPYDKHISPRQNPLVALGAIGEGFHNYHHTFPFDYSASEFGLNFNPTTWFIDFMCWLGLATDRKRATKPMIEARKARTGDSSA

CN1N=C(C(=O)Nc2ncc(Cc3ccccc3)s2)CCC1=O
IC50 (human SCD5): 0.19 µM | IC50 (human SCD1): 0.59 µM
